Source: patent publication US5981592A, “Method and composition for treating cystic fibrosis” (priority 1998, dated 1999)

Columns and labels:
[1] = system: white cell count in the blood; details: in vivo; cited from earlier work
neutrophils = details: high doses; stated as believed; cited from earlier work
[2] = system: cystic fibrosis lung disease; details: cited from earlier work
[3] = system: epithelial cells of the distal colon (crypts); test: Labelling Index (LI) of proliferating crypt cells in distal colon, BrD-U staining; format: in vivo, Female Sprague-Dewley rats; details: rats, 30 days; for LI (Labelling Index): 6.3 mg/Kg/day, distal colon, control 12.62, P<0.05
Excerpt: The term "effective to elicit a chemoprotective effect" was used herein means that abnormal cell proliferation is reduced. A method of measuring cell proliferation in animals is the Labelling Index (LI). Epithelial cells of the distal colon are stained using a histologic biomarker of proliferating cells. Microscopic examination allows for quantification of the proportion of proliferating cells in the crypts. A high proportion of proliferating cells or LI, particularly in the upper portion of the crypts, is an indicator of abnormal cell proliferation. A reduction in the LI of at least 10 to 50%, preferably at least 30% is associated with the reduction of abnormal cell proliferation. Of course, the particular R-NSAID used must be enantiomerically stable in the animal species being tested.
(§1) A study was performed to compare the R- and S-isomers of flurbiprofen with regard to their effect on the Labelling Index (LI) and duodenal ulceration in contrast to the S-isomer.
(§2) Female Sprague-Dewley rats were randomized to 4 groups (N=10) receiving 6.3 mg/Kg/day R-flurbiprofen; 6.3 mg/Kg/day S-flurbiprofen; 12.5 mg/Kg/day racemic flurbiprofen; or vehicle control. Fasted rats were sacrificed after 30 days. Small bowel ulcer score was recorded in each group.
The LI is calculated using a histologic biomarker of proliferating cells, a monoclonal antibody to Bromo-deoxyuridine (BrD-U). Intestinal crypts are examined microscopically in longitudinal sections such that proliferating cells are identified and quantified as a proportion of total crypt cells. An LI was determined for each rat using BrD-U staining to identify the proportion of mitotic cells in the crypt of Leiberkuhn. Twelve well-oriented crypts (distal colon) were examined in each rat.

neutrophil traffic = test: effect on neutrophil traffic in the normal rat; format: in vivo; details: for neutrophil adhesiveness and extravasation: post-capillary venules and surrounding tissue
colon cancer [4] = details: cited from earlier work; for prevention of cancer of the large bowel and rectum: causal relationship with use identified by the reference
gastric mucosa = details: in vivo; cited from earlier work
colon cancer [5] = details: cited from earlier work; for survival among colon cancer patients: 5-fluorouracil alone or with levamisole
small bowel = system: small bowel; set-up: species or system Female Sprague-Dewley rats; details: rat, in vivo
Experimental: The term "with reduced gastrointestinal toxicity" as used herein means that the administration of the particular R-NSAID is less ulcerogenic to the gastrointestinal tract of the human or other mammal than the corresponding racemate or S-NSAID. One measure of ulcerogenic activity is the small bowel ulcer score. A rat is treated daily through oral administration of the R-NSAID for 30 days. At the end of the 30 days, the rat is sacrificed and the intestines removed. Lesions of appreciable size in the mucosa are measured. A cumulative score equaling the sum of the diameters of the ulcers measured are reported as the ulcer score. An ulcer score essentially equal to that of a control rat, or a reduction of the ulcer score of at least 50 to 90%, preferably at least 80%, as compared to the corresponding S-NSAID or racemate, is considered a reduction in gastrointestinal toxicity.
as §1, §2

Q: What does the source list for `CC(C)Cc1ccc(C(C)C(=O)O)cc1` (racemic) [racemic ibuprofen]?
A: leukopenia/agranulocytosis syndrome [1]: leukopenia/agranulocytosis syndrome has been described; influx of neutrophils to the alveolar crevices (neutrophils): inhibits the influx of neutrophils to the alveolar crevices; progression of the lung disease ([2]; high doses, four-year period, cystic fibrosis patients): slows progression of the lung disease; side effects at high doses ([2]; human, in vivo): conjunctivitis and epistaxis

Q: With `C[C@H](C(=O)O)c1ccc(-c2ccccc2)c(F)c1` [S-flurbiprofen] as the molecule, how does the “LI (Labelling Index)” value [3] read?
A: 9.09

Q: What about the “neutrophil adhesiveness and extravasation” value (neutrophil traffic) of the same molecule?
A: produce neutrophil adhesiveness in the post-capillary venules and extravasation of neutrophils into the surrounding tissue

Q: With `CC1=C(CC(=O)O)c2cc(F)ccc2/C1=C\c1ccc([S+](C)[O-])cc1` (stereo not drawn) [sulindac] as the molecule, how does the “prevention of cancer of the large bowel and rectum” value (“prevention” for short) (colon cancer [4]) read?
A: prevention of cancer of the large bowel and rectum

Q: Which leukopenia/agranulocytosis syndrome [1] does the source give for `COc1ccc2c(c1)c(CC(=O)O)c(C)n2C(=O)c1ccc(Cl)cc1` [indomethacin] here?
A: leukopenia/agranulocytosis syndrome has been described

Q: And the “prevention” value (colon cancer [4])?
A: prevention of cancer of the large bowel and rectum

Q: What about the “damage and irritation of the gastric mucosa” value (gastric mucosa) of the same molecule?
A: cause damage and irritation of the gastric mucosa

Q: What does the source list for `CC(=O)Oc1ccccc1C(=O)O` [aspirin]?
A: protection against colon cancer (colon cancer [4]; epidemiologic survey): confer protection against colon cancer; damage and irritation of the gastric mucosa (gastric mucosa): cause damage and irritation of the gastric mucosa

Q: With `CC(C(=O)O)c1cccc(C(=O)c2ccccc2)c1` (stereo not drawn) [ketoprofen] as the molecule, how does the leukopenia/agranulocytosis syndrome [1] read?
A: leukopenia/agranulocytosis syndrome has been described

Q: For `CC(C(=O)O)c1ccc(-c2ccccc2)c(F)c1` (racemic) [racemic flurbiprofen], which “LI, result in words” value ([3]; equal-molar doses of both enantiomers (racemic 12.5 mg/Kg/day), relative to R- and S-flurbiprofen groups) is on record?
A: further reduced

Q: For `CN1C(C(=O)Nc2ccccn2)=C(O)c2ccccc2S1(=O)=O` [peroxicam], which “prevention” value (colon cancer [4]) is on record?
A: prevention of cancer of the large bowel and rectum

Q: For `O=c1[nH]cc(F)c(=O)[nH]1` [5-fluorouracil], which “survival among colon cancer patients” value (colon cancer [5]) is on record?
A: No improvement in survival

Q: With `c1ccc([C@H]2CN3CCSC3=N2)cc1` [levamisole] as the molecule, how does the “survival among colon cancer patients” value (colon cancer [5]) read?
A: improved survival rate

Q: What about the “T-cell count / immune system” value (colon cancer [5]; human, in vivo) of the same molecule?
A: stimulate the immune system and increase T-cell count

Q: With `CC(C)Cc1ccc([C@H](C)C(=O)O)cc1` [S(+) ibuprofen] as the molecule, how does the gastrointestinal side effects ([2]; human, in vivo) read?
A: severely limit the chronic use of this therapy

Q: What does the source list for `C[C@@H](C(=O)O)c1ccc(-c2ccccc2)c(F)c1` [R-flurbiprofen]?
A: ulcerogenicity, in words (small bowel): much less ulcerogenic than its S-enantiomer; cell proliferation in the distal colon, in words [3]: suppresses cell proliferation in the distal colon; LI (Labelling Index) [3]: 8.71; effect on neutrophil traffic relative to the S-enantiomer (neutrophil traffic): as effective as the S-enantiomer; neutrophil adhesiveness and extravasation (neutrophil traffic): produce neutrophil adhesiveness in the post-capillary venules and extravasation of neutrophils into the surrounding tissue
